The results in this text go back to ChEMBL document CHEMBL4725394 (J Med Chem, 2020).

Data set [1] addresses T1, Free fatty acid receptor 1 (Homo sapiens, UniProt O14842). In words: Agonist activity at human GPR40 expressed in CHO cells incubated for 60 mins by FLIPR based Ca2+ mobilization assay. The data set is classed as functional, cell-based. (A change in cytosolic calcium serves as a functional read-out for many receptors and channels.)
The target of data set [2] is T1, Free fatty acid receptor 1. In words: Agonist activity at human GPR40 expressed in CHO cells incubated for 60 mins by FLIPR based Ca2+ mobilization assay relative to gamma-linolenic acid. The data set is classed as functional, cell-based. Conditions: filed as agonist.
The target in data set [3] is T1, Free fatty acid receptor 1. Nature of the data set: Binding affinity to human GPR40 expressed in CHO cells by LC-MS analysis. The data set is classed as cell-based.
Data set [4] can be described thus: Cytotoxicity in human HepG2 cells assessed as intracellular ATP content level at 30 uM by ATPlite-M assay relative to control. The data set is classed as cell-based. Conditions: time 1 day, read-out: Activity. In general terms: Cellular ATP, detected with luciferase, serves as a proxy for viable cell number.
The test system of data set [5] is HepG2. Nature of the data set: Cytotoxicity in human HepG2 cells assessed as caspase-3/7 activity level at 30 uM by Caspase-GloTM 3/7 assay relative to staurosporine. The data set is classed as cell-based. Conditions: hepg2, 24 h, time 1 day.
For data set [6], the target named is T1, Free fatty acid receptor 1. Nature of the data set: Agonist activity at human GPR40 expressed in CHO cells at 10 uM incubated for 60 mins by FLIPR based Ca2+ mobilization assay relative to gamma-linolenic acid. The data set is classed as functional, cell-based.
In data set [7] the target is T1, Free fatty acid receptor 1. In words: Agonist activity at human GPR40 expressed in CHO cells at 1 uM incubated for 60 mins by FLIPR based Ca2+ mobilization assay relative to gamma-linolenic acid. The data set is classed as functional, cell-based.
In data set [8] the target is T1, Free fatty acid receptor 1. Nature of the data set: Binding affinity to human GPR40 expressed in CHO cells assessed as formation of protein-ternary complex by LC-MS analysis. The format is cell-based. Particulars: filed as agonist.
The target in data set [9] is T1, Free fatty acid receptor 1. In words: Binding affinity to human GPR40 expressed in CHO cells in presence of 10 and 100 nM […] by LC-MS analysis based competitive binding assay. Conditions: filed as agonist, dose nM 10-100. The data set is classed as cell-based.
For data set [10], the system named is Rattus norvegicus. Nature of the data set: Suppression of glucose tolerance in Wistar Kyoto N-STZ-1.5 rat model of streptozotocin-induced diabetes at 10 mg/kg, po followed by glucose challenge. The data set is classed as functional, organism-based.
The test system of data set [11] is Rattus norvegicus. Nature of the data set: Stimulation of insulin secretion in Wistar Kyoto N-STZ-1.5 rat model of streptozotocin-induced diabetes at 10 mg/kg, po followed by glucose challenge by ELISA. The data set is classed as functional, organism-based.
Data set [12] in a line: Cmax in Wistar Kyoto N-STZ-1.5 rat model of streptozotocin-induced diabetes at 0.1 to 1 mg/kg, po followed by glucose challenge during 2-week-dosing study. The format is ADME, organism-based. Particulars: in vivo. Also noted: time 2 weeks, dose 0.1-1.
A short description of data set [13]: AUC (0 to 24 hrs) in Wistar Kyoto N-STZ-1.5 rat model of streptozotocin-induced diabetes at 0.1 to 1 mg/kg, po followed by glucose challenge during 2-week-dosing study. The format is ADME, organism-based. On the set-up: time 2 weeks, dose 0.1-1. Particulars: in vivo.
Data set [14] in a line: Cmax in diabetic patient at 50 mg, po. The format is ADME. On the set-up: dose 50 mg, route oral. Conditions: human, in vivo.
Data set [15] can be described thus: AUC (0 to 24 hrs) in diabetic patient at 50 mg, po. The format is ADME. On the set-up: dose 50 mg, time < 24 hr, route oral. Conditions: human, in vivo.

Structures are written as SMILES. The source made the active and inactive calls. The rule behind the calls is not given here.

T1 sequence (O14842 whole entry): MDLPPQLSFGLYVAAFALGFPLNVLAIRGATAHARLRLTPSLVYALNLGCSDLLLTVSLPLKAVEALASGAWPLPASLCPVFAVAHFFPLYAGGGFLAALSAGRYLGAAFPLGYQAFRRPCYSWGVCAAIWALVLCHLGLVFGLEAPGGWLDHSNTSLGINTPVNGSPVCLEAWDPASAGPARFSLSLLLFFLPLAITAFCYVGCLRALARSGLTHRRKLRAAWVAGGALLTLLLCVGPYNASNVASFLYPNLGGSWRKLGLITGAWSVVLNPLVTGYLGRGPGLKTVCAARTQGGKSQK

What is called EC50 is the concentration giving half of the maximal effect. A higher EC50 goes with lower potency in that assay. One may read the Emax as the size of the effect at its maximum, as opposed to the concentration needed. On to `COc1ccc(C(=O)N(CC(C)(C)C)c2cccc(C)n2)c(N2CCC(COc3cc(C(CC(=O)O)C4CC4)ccn3)CC2)c1` (centres undefined), for which the EC50 in data set [1] was 17 nM. The same compound displayed an Emax in [2] of 112%.
A word on the Kd: it is the concentration at which binding is half-saturated. Read a low Kd as higher affinity. With `COc1ccc(F)c(-c2ccc(COc3cccc([C@@H](CC(=O)O)C4CC4)c3)cc2C2=CCCC2(C)C)c1`, the concentration for a half-maximal effect (EC50) in data set [1] was 150 nM. This compound also showed an Emax in data set [2] of 182%. The compound also displayed a Kd in data set [3] of 5 nM.
For `COc1ccc(C(=O)N(C)CC(C)(C)C)c(N2CCC(COc3cccc(C(CC(=O)O)C4CC4)c3)CC2)c1` (centres undefined), the viability at 24 h, 30 µM in [4] came out at 82.2%. The EC50 in [1] was 100 nM. For the same compound, the Emax in data set [2] worked out at 107%. For the same compound, the Activity in data set [5] was determined as 6.6%.
`COc1ccc(C(=O)N(CC(C)(C)C)c2cccc(C)n2)c(N2CCC(COc3cccc(C4(CC(=O)O)COC4)c3)CC2)c1` gave an EC50 in [1] of 840 nM. The compound also gave an Emax in data set [2] of 115%.
As for `COc1ccc(CCCC(C)(C)C)c(N2CCC(Oc3cccc(C(CC(=O)O)C4CC4)c3)CC2)c1` (centres undefined), the Activity in [6] turned out to be 22%.
For `COc1ccc(CCCC(C)(C)C)c(N2CC(COc3cccc(C(CC(=O)O)C4CC4)c3)C2)c1` (centres undefined), in data set [1], a half-maximal response (EC50) required 250 nM.
Compound `COc1ccc(C(=O)N(CC(C)(C)OC)c2ccccn2)c(N2CCC(COc3cccc(C(CC(=O)O)C4CC4)c3)CC2)c1` (centres undefined) displayed an EC50 in data set [1] of 100 nM. The same compound gave an Emax in [2] of 105%.
In the case of `COc1ccc(C(C)C)c(N2CCC(COc3cccc(C(CC(=O)O)C4CC4)c3)CC2)c1` (centres undefined), the viability at 24 h, 30 µM in data set [4] turned out to be 0.1%. In [1], this compound returned an EC50 of 120 nM. This compound also yielded an Emax in data set [2] of 117%. Further, in data set [5], the Activity stood at 43.4%.
Regarding `COc1ccc(C)c(N2CCC(COc3cccc(C(CC(=O)O)C4CC4)c3)CC2)c1` (centres undefined), the viability at 24 h, 30 µM in data set [4] came to 67.4%. The compound further had an EC50 in data set [1] of 270 nM. In addition, in [2], the Emax was 113%. Also, the Activity in [5] stood at 8.3%.
For the compound `COc1ccc(C(=O)N(C)c2ccccn2)c(N2CCC(COc3cccc(C(CC(=O)O)C4CC4)c3)CC2)c1` (centres undefined), in data set [4], the viability at 24 h, 30 µM is 83.6%. Further, the EC50 in data set [1] came to 180 nM. Also, the maximal effect (Emax) in [2] was 105%. Also, in data set [5], the Activity was -1.1%.
The like results for `COc1ccc(C(=O)N(C)c2ccccc2)c(N2CCC(COc3cccc(C(CC(=O)O)C4CC4)c3)CC2)c1` (centres undefined) were, in that order, 79.3%, 140 nM, 101% and 2.8%.
Turning to `COCC(CC(=O)O)c1cccc(OCC2CCN(c3cc(OC)ccc3C(=O)N(CC(C)(C)C)c3cccc(C)n3)CC2)c1` (centres undefined), it took 120 nM to reach a half-maximal effect in [1] (EC50). In addition, the Emax in [2] was 104%.
`COc1ccc(CCC(C)(C)O)c(N2CCC(COc3cccc(C(CC(=O)O)C4CC4)c3)CC2)c1` (centres undefined): the viability at 24 h, 30 µM in data set [4] turned out to be 76.6%. In addition, the midpoint of the response in data set [1], the EC50, lay at 970 nM. This compound came in with an Emax in data set [2] of 109%. In addition, the Activity in data set [5] is given as 0.1%.
The compound `COc1ccc(F)c(-c2ccc(COc3cccc([C@@H](CC(=O)O)C4CC4)c3)nc2CC(C)(C)C)c1` registered an EC50 in data set [1] of 150 nM. In [2], the Emax is 66%.
In turn, `CCOC(CC(=O)O)c1cccc(OCC2CCN(c3cc(OC)ccc3C(=O)N(CC(C)(C)C)c3cccc(C)n3)CC2)c1` (centres undefined) registered an EC50 in data set [1] of 74 nM. The same compound showed an Emax in [2] of 104%.
For `COc1cccc(N2CCC(COc3cccc(C(CC(=O)O)C4CC4)c3)CC2)c1` (centres undefined), the viability at 24 h, 30 µM in [4] is 92%. Further, the Activity was 91% in data set [6] (filed as agonist), -1.1% in data set [5] and 8% in [7].
Consider `COc1ccc(CCCC(C)(C)C)c(N2CCC(COc3cccc(C(CC(=O)O)C4CC4)c3)CC2)c1` (centres undefined), for which the viability at 24 h, 30 µM in data set [4] was determined as 0.1%. Besides, in data set [1], the EC50 was 11 nM. Further, in data set [2], the Emax was 106%. Besides, the outcome in data set [8] and in data set [9] was Active. Also, the Activity in [5] is reported as 26%.
For the compound `COc1ccc(CCC(C)(C)C)c(N2CCC(COc3cccc(C(CC(=O)O)C4CC4)c3)CC2)c1` (centres undefined), the viability at 24 h, 30 µM in data set [4] is 0.1%. The compound further had an EC50 in [1] of 34 nM. In addition, in [2], the Emax was 110%. For the same compound, the Activity in data set [5] is listed as 67.3%.
Compound `COc1ccc(C(=O)N(CC(C)C)c2ccccn2)c(N2CCC(COc3cccc(C(CC(=O)O)C4CC4)c3)CC2)c1` (centres undefined) came in with a 50% effective concentration (EC50) in data set [1] of 29 nM. In addition, the Emax in [2] was 107%.
`COc1ccc(F)c(N2CCC(COc3cccc(C(CC(=O)O)C4CC4)c3)CC2)c1` (centres undefined): the viability at 24 h, 30 µM in [4] worked out at 72.7%. The EC50 in data set [1] worked out at 670 nM. In [2], this compound displayed an Emax of 114%. Further, the Activity in data set [5] is recorded as -1.7%.
For the compound `COc1ccc(C(=O)N(CC(C)(C)C)c2ccccn2)c(N2CCC(COc3cccc(C(CC(=O)O)C4CC4)c3)CC2)c1` (centres undefined), the midpoint of the response in data set [1], the EC50, lay at 26 nM. In [2], this compound displayed a maximum response (Emax) of 110%.
As to `COc1ccc(CCCC(C)(C)C)c(-c2ccc(COc3cccc(C(CC(=O)O)C4CC4)c3)cc2)c1` (centres undefined), in data set [1], the half-maximal effective concentration (EC50) came out at 410 nM. This compound also yielded an Emax in data set [2] of 105%.
As for `COc1ccc(C(=O)N(CC(C)(C)C)c2cccc(C)n2)c(N2CCC(COc3cccc(C(CC(=O)O)OC)c3)CC2)c1` (centres undefined), the concentration giving a half-maximal response (EC50) in data set [1] stood at 62 nM. Moreover, the Emax in data set [2] was 109%.
For `N[C@@H](CC(=O)N1CCn2c(nnc2C(F)(F)F)C1)Cc1cc(F)c(F)cc1F`, the result in data set [10] and in [11] was Active.
In the case of `Cc1cc(OCCCS(C)(=O)=O)cc(C)c1-c1cccc(COc2ccc3c(c2)OC[C@H]3CC(=O)O)c1`, the Cmax stood at 39.8 ng/mL in data set [12] and 5300 ng/mL in data set [14]. For the same compound, the AUC(0-t) at 336 h in [13] worked out at 255 ng·h/mL. Moreover, the AUC(0-t) at 24 h in data set [15] was 100000 ng·h/mL.
Take `COc1ccc(CN(C)CC(C)C)c(N2CCC(COc3cccc(C(CC(=O)O)C4CC4)c3)CC2)c1` (centres undefined): the viability at 24 h, 30 µM in data set [4] stood at 80.7%. This compound also registered a concentration for a half-maximal effect (EC50) in [1] of 1000 nM. The Emax in data set [2] stood at 110%. The Activity in data set [5] is -1.1%.
For the compound `COc1ccc(C(=O)N(CC(C)(C)C)c2cccc(C)n2)c(N2CCC(COc3cccc(C(CC(=O)O)C4CC4)n3)CC2)c1` (centres undefined), the Activity in data set [6] came to 39%.
`COc1ccc(C(=O)N(CC(C)(C)C)c2cccc(C)n2)c(N2CCC(COc3cccc(C(CC(=O)O)C4CC4)c3)CC2)c1` (centres undefined) gave an EC50 in data set [1] of 17 nM. The same compound displayed an Emax in data set [2] of 109%.
The like results for `COc1ccc(C(=O)N(CC(C)(C)C)c2cccc(C)n2)c(N2CCC(COc3cc([C@H](CC(=O)O)C4CC4)ccn3)CC2)c1` were, in that order, 83 nM and 109%.
Compound `COc1ccc(C(=O)N(CC(C)(C)C#N)c2ccccn2)c(N2CCC(COc3cccc(C(CC(=O)O)C4CC4)c3)CC2)c1` (centres undefined) returned an EC50 in data set [1] of 160 nM. This compound also came in with a maximal response (Emax) in data set [2] of 108%.
